Results from US7169567B1, “Screening assay utilizing the PTH receptor” (The General Hospital Corporation, priority 1998, dated 2007).
Where no end group is shown, it is not given here.

Tests used:
[1] = test system: PTH-1 receptor (intact or truncated receptors used in this study); experiment: Competition and direct binding assays (radioiodinated rPTH(1–34) tracer or radiolabeled PTH(1–14) analog); settings: unlabeled peptide; radioiodinated rPTH(1–34) as tracer ligand; data not shown
From the text: This reduced potency is not surprising, given that the PTH(1–14) peptide lacks important receptor-binding residues located in the PTH(15–34) region in the PTH(15–34) domain (Nussbaum, S. R., et al., J. Biol. Chem. 255:10183–10187 (1980); Gardella, T. J., et al., Endrocrinology 132(5):2024–2030 (1993); Caulfield, M. P., et al., Endocrinology 127:83–87 (1990); and Abou-Samra, A.-B., et al., Endocrinology 125:2215–2217 (1989)).

[2] = biological target: T1, intact rat PTH-1 receptor (rWT-HA) (Rattus norvegicus, UniProt P25961); experiment: cAMP response in COS-7 cells transiently transfected with intact rat PTH-1 receptor (rWT-HA); format: cell-based; settings: COS-7 cells expressing rWT-HA
T1 construct: expressed in transfected cells; host or cells: COS-7, transient (DEAE-dextran), pCDNA-1 based plasmid
T1 sequence (P25961 23-591 E93Y/N94P/K95Y/T99D/G100Y/S101A limits assumed): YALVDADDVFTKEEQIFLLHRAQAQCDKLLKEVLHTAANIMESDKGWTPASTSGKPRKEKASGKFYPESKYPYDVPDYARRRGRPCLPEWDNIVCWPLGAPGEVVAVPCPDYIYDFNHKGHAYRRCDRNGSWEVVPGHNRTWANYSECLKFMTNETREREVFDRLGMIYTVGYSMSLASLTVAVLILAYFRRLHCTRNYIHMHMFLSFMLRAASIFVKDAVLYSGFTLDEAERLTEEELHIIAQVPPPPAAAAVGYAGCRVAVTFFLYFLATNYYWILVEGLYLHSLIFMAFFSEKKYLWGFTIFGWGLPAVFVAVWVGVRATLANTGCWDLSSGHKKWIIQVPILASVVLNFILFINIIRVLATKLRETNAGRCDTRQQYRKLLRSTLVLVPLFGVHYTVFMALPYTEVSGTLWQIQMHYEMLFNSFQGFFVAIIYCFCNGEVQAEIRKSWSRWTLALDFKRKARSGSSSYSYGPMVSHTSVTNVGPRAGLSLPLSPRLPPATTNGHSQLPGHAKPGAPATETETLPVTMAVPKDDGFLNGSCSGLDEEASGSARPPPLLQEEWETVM
From the text: FIG. 4. PTH Responses of Intact and Truncated PTH-1 Receptors in COS-7 Cells. Shown at the top are schematics of the intact (A) and truncated (B) rat PTH-1 receptors used for transient transfection of COS-7 cells, and subsequent cAMP response assays. The conserved extracellular cysteine residues are depicted as open circles and numbered according to sequence position, and the nine amino acids of the epitope tag (HA) in rWT-HA are shaded. The tics at residue 26 and 181 indicate the endpoints of the deletion in rΔNt. Based on the predicted signal peptide cleavage site at Ala-22, residues 23–25 in rΔNt are joined to residue 182. The cAMP responses of COS-7 cells expressing the intact receptor (C) and rΔNt (D) to rPTH(1–34) (J) or rPTH(1–14) (C) are also shown. The graphs show combined data (mean±s.e.m.) from five separate experiments, each performed in duplicate.
FIG. 5. Alanine-scan of PTH(1–14) with Intact and Truncated PTH Receptors. COS-7 cells transiently transfected with rWT-HA (A) or rCE I-G (B) were treated with 100 mM of native rat PTH(1–14) or 100 mM of a rPTH(1–14) analog containing a single alanine substitution for 1 h at 21° C., and the resulting intracellular cAMP levels were measured by RIA. The amino acid substitutions are indicated on the axis labels. Peptides were tested in duplicate, and a single experiment representative of three others is shown. […]

PTH(1–14): Amino-terminal peptide fragment based on the rat PTH sequence, residues 1–14, C-terminally amidated (AVSEIQLMHNLGKH-NH2)
binding in standard competition binding assays [1]: bound too weakly to permit detection | potency relative to PTH(1–34) with rWT-HA [2]: four to five orders of magnitude weaker
